The values below come from ChEMBL document CHEMBL1133313, “Syntheses and antifungal activity of pseudomycin side-chain analogues. Part 1” (2000).

Structures are written as SMILES. Converted amounts (≈) assume the structure as drawn. Positions of bridges follow the written chain, without caps; N, C: chain ends. Non-standard residues stand in square brackets, D forms with d. Residues, ends and D or L forms follow the SMILES beside them. *: point of attachment. Tetradecanoyl(3R-OH) = CCCCCCCCCCC[C@@H](O)CC(=O)*; Asp(3S-OH) = N[C@H](C(=O)O)[C@H](O)C(=O)O; Thr(4-Cl) = N[C@H](C(=O)O)[C@H](O)CCl; aThr = C[C@H](O)[C@H](N)C(=O)O; dDab = NCC[C@@H](N)C(=O)O; Dab = NCC[C@H](N)C(=O)O; Dhb = C/C=C(\N)C(=O)O Bounds are passed on as bounds.

Format in all cases: functional
Assay [1] concerns Candida albicans. The assay can be described thus: Lowest concentration required to inhibit 90-100% of the visible growth of Candida albicans when compared to controls.
For a further assay, the system named is Aspergillus fumigatus. Description: Lowest concentration required to inhibit the growth of Aspergillus fumigatus.
The test system of assay [2] is Candida albicans. Description: Lowest concentration required to inhibit 90-100% of the visible growth of Candida albicans when compared to control; Range is 0.312-0.625.

The MIC is the smallest concentration in the dilution series that meets the test's criterion for growth inhibition. High values mean a need for much substance, low ones inhibition by little substance. Regarding `C/C=C1\NC(=O)[C@H]([C@H](C)O)NC(=O)[C@@H](CCN)NC(=O)[C@@H](CCCCN)NC(=O)[C@@H](CC(=O)O)NC(=O)[C@@H](CCN)NC(=O)[C@@H](NC(=O)C[C@@H](O)c2cccc(OCCCCCCCCCCC)c2)COC(=O)[C@@H]([C@H](O)CCl)NC(=O)[C@H]([C@H](O)C(=O)O)NC1=O`, the MIC against Candida albicans [1] was 10 µg/mL (≈ 7.69 µM); in the assay on Aspergillus fumigatus, over 20 µg/mL.
For the molecule `C/C=C1\NC(=O)[C@H]([C@H](C)O)NC(=O)[C@@H](CCN)NC(=O)[C@@H](CCCCN)NC(=O)[C@@H](CC(=O)O)NC(=O)[C@@H](CCN)NC(=O)[C@@H](NC(=O)C[C@H](O)CCc2cccc(OCCCCC)c2)COC(=O)[C@@H]([C@H](O)CCl)NC(=O)[C@H]([C@H](O)C(=O)O)NC1=O`, the minimal inhibitory concentration (MIC) with Candida albicans [1] and in the assay on Aspergillus fumigatus was over 20 µg/mL in each case.
For `C/C=C1\NC(=O)[C@H]([C@H](C)O)NC(=O)[C@@H](CCN)NC(=O)[C@@H](CCCCN)NC(=O)[C@@H](CC(=O)O)NC(=O)[C@@H](CCN)NC(=O)[C@@H](NC(=O)C[C@@H](O)CCc2cccc(OCCCCC)c2)COC(=O)[C@@H]([C@H](O)CCl)NC(=O)[C@H]([C@H](O)C(=O)O)NC1=O`, the MIC against Candida albicans [1] and with Aspergillus fumigatus was over 20 µg/mL throughout.
As for `C/C=C1\NC(=O)[C@H]([C@H](C)O)NC(=O)[C@@H](CCN)NC(=O)[C@@H](CCCCN)NC(=O)[C@@H](CC(=O)O)NC(=O)[C@@H](CCN)NC(=O)[C@@H](NC(=O)C[C@H](O)c2cccc(CCCCCCCCCCCC)c2)COC(=O)[C@@H]([C@H](O)CCl)NC(=O)[C@H]([C@H](O)C(=O)O)NC1=O`, the MIC against Candida albicans [1] stood at 1.25 µg/mL (≈ 0.963 µM); in the assay with Aspergillus fumigatus, 2.5 µg/mL (≈ 1.93 µM).
On to `C/C=C1\NC(=O)[C@H]([C@@H](C)O)NC(=O)[C@@H](CCN)NC(=O)[C@@H](CCCCN)NC(=O)[C@@H](CC(=O)O)NC(=O)[C@@H](CCN)NC(=O)[C@@H](NC(=O)CC(O)CCc2cccc(OCCCCCCC)c2)COC(=O)[C@@H]([C@H](O)CCl)NC(=O)[C@H]([C@H](O)C(=O)O)NC1=O` (stereo not given in full), for which the MIC against Candida albicans [1] is 10 µg/mL (≈ 7.86 µM); with Aspergillus fumigatus it was over 20 µg/mL.
The like results for `C/C=C1\NC(=O)[C@H]([C@@H](C)O)NC(=O)[C@@H](CCN)NC(=O)[C@@H](CCCCN)NC(=O)[C@@H](CC(=O)O)NC(=O)[C@@H](CCN)NC(=O)[C@@H](NC(=O)CC(O)Cc2cccc(OCCCCCCCC)c2)COC(=O)[C@@H]([C@H](O)CCl)NC(=O)[C@H]([C@H](O)C(=O)O)NC1=O` (stereo not given in full) were, in that order, over 20 µg/mL and over 20 µg/mL.
As for `C/C=C1\NC(=O)[C@H]([C@@H](C)O)NC(=O)[C@@H](CCN)NC(=O)[C@@H](CCCCN)NC(=O)[C@@H](CC(=O)O)NC(=O)[C@@H](CCN)NC(=O)[C@@H](NC(=O)C[C@H](O)c2cccc(CCCCCCCC)c2)COC(=O)[C@@H]([C@H](O)CCl)NC(=O)[C@H]([C@H](O)C(=O)O)NC1=O`, the MIC with Candida albicans [1] is 5 µg/mL (≈ 4.03 µM); against Aspergillus fumigatus, over 20 µg/mL.
As to `C/C=C1\NC(=O)[C@H]([C@@H](C)O)NC(=O)[C@@H](CCN)NC(=O)[C@@H](CCCCN)NC(=O)[C@@H](CC(=O)O)NC(=O)[C@@H](CCN)NC(=O)[C@@H](NC(=O)CC(O)CCc2cccc(OCCCCCCCCC)c2)COC(=O)[C@@H]([C@H](O)CCl)NC(=O)[C@H]([C@H](O)C(=O)O)NC1=O` (stereo not given in full), the values for the MIC in the assay with Candida albicans [1] and with Aspergillus fumigatus were 20 µg/mL (≈ 15.4 µM) and over 20 µg/mL, respectively.
In the same order, the values of `C/C=C1\NC(=O)[C@H]([C@H](C)O)NC(=O)[C@@H](CCN)NC(=O)[C@@H](CCCCN)NC(=O)[C@@H](CC(=O)O)NC(=O)[C@@H](CCN)NC(=O)[C@@H](NC(=O)C[C@@H](O)c2cccc(CCCCCCCCCCCC)c2)COC(=O)[C@@H]([C@H](O)CCl)NC(=O)[C@H]([C@H](O)C(=O)O)NC1=O` are 5 µg/mL (≈ 3.85 µM) and over 20 µg/mL.
On to `C/C=C1\NC(=O)[C@H]([C@H](C)O)NC(=O)[C@@H](CCN)NC(=O)[C@@H](CCCCN)NC(=O)[C@@H](CC(=O)O)NC(=O)[C@@H](CCN)NC(=O)[C@@H](NC(=O)C[C@@H](O)c2cccc(CCCCCCCC)c2)COC(=O)[C@@H]([C@H](O)CCl)NC(=O)[C@H]([C@H](O)C(=O)O)NC1=O`, for which the MIC in the assay on Candida albicans [1] and in the assay with Aspergillus fumigatus was over 20 µg/mL throughout.
For `C/C=C1\NC(=O)[C@H]([C@@H](C)O)NC(=O)[C@@H](CCN)NC(=O)[C@@H](CCCCN)NC(=O)[C@@H](CC(=O)O)NC(=O)[C@@H](CCN)NC(=O)[C@@H](NC(=O)CC(O)Cc2cccc(OCCCCCCCCCC)c2)COC(=O)[C@@H]([C@H](O)CCl)NC(=O)[C@H]([C@H](O)C(=O)O)NC1=O` (stereo not given in full), the MIC is 15 µg/mL (≈ 11.5 µM) in the assay on Candida albicans [1] and over 20 µg/mL in the assay on Aspergillus fumigatus.
As for `C/C=C1\NC(=O)[C@H]([C@@H](C)O)NC(=O)[C@@H](CCN)NC(=O)[C@@H](CCCCN)NC(=O)[C@@H](CC(=O)O)NC(=O)[C@@H](CCN)NC(=O)[C@@H](NC(=O)C[C@H](O)c2cccc(OCCCCCCCCCCC)c2)COC(=O)[C@@H]([C@H](O)CCl)NC(=O)[C@H]([C@H](O)C(=O)O)NC1=O`, the MIC in the assay on Candida albicans [1] was 0.625 µg/mL (≈ 0.481 µM); in the assay with Aspergillus fumigatus, over 20 µg/mL.
On to `C/C=C1\NC(=O)[C@H]([C@H](C)O)NC(=O)[C@H](CCN)NC(=O)[C@H](CCCCN)NC(=O)[C@H](CC(=O)O)NC(=O)[C@@H](CCN)NC(=O)[C@@H](NC(=O)C[C@H](O)CCCCCCCCCCC)COC(=O)[C@H]([C@H](O)CCl)NC(=O)[C@H]([C@H](O)C(=O)O)NC1=O` ({Tetradecanoyl(3R-OH)}-S[dDab]DK[Dab][aThr][Dhb][Asp(3S-OH)][Thr(4-Cl)]; ester 1-C), for which the MIC in the assay with Candida albicans [2] is 0.625 µg/mL (≈ 0.517 µM); in the assay on Aspergillus fumigatus, over 20 µg/mL.
Regarding `C/C=C1\NC(=O)[C@H]([C@@H](C)O)NC(=O)[C@@H](CCN)NC(=O)[C@@H](CCCCN)NC(=O)[C@@H](CC(=O)O)NC(=O)[C@@H](CCN)NC(=O)[C@@H](NC(=O)CC(O)CCc2cccc(OCCCCC)c2)COC(=O)[C@@H]([C@H](O)CCl)NC(=O)[C@H]([C@H](O)C(=O)O)NC1=O` (stereo not given in full), the MIC in the assay with Candida albicans [1] and in the assay with Aspergillus fumigatus was over 20 µg/mL throughout.
Regarding `C/C=C1\NC(=O)[C@H]([C@@H](C)O)NC(=O)[C@@H](CCN)NC(=O)[C@@H](CCCCN)NC(=O)[C@@H](CC(=O)O)NC(=O)[C@@H](CCN)NC(=O)[C@@H](NC(=O)CC(O)Cc2cccc(OCCCCCC)c2)COC(=O)[C@@H]([C@H](O)CCl)NC(=O)[C@H]([C@H](O)C(=O)O)NC1=O` (stereo not given in full), the minimum inhibitory concentration (MIC) with Candida albicans [1] and in the assay with Aspergillus fumigatus was over 20 µg/mL each time.
